Source: ChEMBL document CHEMBL5029187 (J Med Chem, 2021)
Active and inactive are the calls of the source. The rule behind the calls is not given here.

How the values were obtained:
HeLa = assay: Cytotoxicity against human HeLa cells assessed as reduction in cell viability incubated for 48 hrs by MTT assay; assay type: functional, cell-based
HepG2 [1] = assay: Cytotoxicity against human HepG2 cells assessed as reduction in cell viability incubated for 48 hrs by MTT assay; assay type: functional, cell-based; settings: HepG2, 48 h
A549 = assay: Cytotoxicity against human A549 cells assessed as reduction in cell viability incubated for 48 hrs by MTT assay; assay type: functional, cell-based; settings: A549, 48 h
SMMC-7721 = assay: Cytotoxicity against human SMMC-7721 cells assessed as reduction in cell viability incubated for 48 hrs by MTT assay; assay type: functional, cell-based; settings: SMMC-7721, 48 h
[2] = Prodrug activation assessed as increase in fluorescence intensity in presence of GSH at 10 uM incubated for 60 mins; settings: 1 h
[3] = Prodrug activation in TE buffer assessed as alterations in fluorescence intensity at 10 uM incubated for 60 mins; settings: 1 h
[4] = Prodrug release in TE buffer assessed as increase in camptothecin level at 10 uM measured within 10 mins in the presence of GSH by HPLC analysis; assay type: ADME
[5] = Prodrug activation assessed as increase in ferro cytochrome c production in presence of GSH and SOD by cytochrome c reduction assay
[6] = Prodrug activation in TE buffer assessed as fold change in fluorescence intensity at 10 uM in presence of GSH
[7] = Prodrug activation in human HepG2 cells assessed as increase in camptothecin level by measuring fluorescence level at 10 uM by fluorescence microscopy; assay type: cell-based; settings: hepg2, 10 µM, TDE = time-dependent effect, time 15-90 min
HepG2 [8] = assay: Induction of ROS generation in human HepG2 cells assessed as increase in ROS accumulation for 6 hrs by DCFH-DA staining based fluorescence assay; assay type: functional, cell-based; settings: dose 2-5 µM
HepG2 [9] = assay: Inhibition of redox balance in human HepG2 cells assessed as reduction in GSH/GSSG ratio incubated for 24 hrs; assay type: functional, cell-based
HepG2 [10] = assay: Induction of apoptosis in human HepG2 cells assessed as increase in apoptotic cells for 48 hrs by FITC-annexin V/PI double staining based flow cytometry; assay type: functional, cell-based
HepG2 [11] = assay: Antitumor activity against human HepG2 cells xenografted BALB/c mouse assessed as reduction in tumor growth at 30 mg/kg, ip administered for once every 3 days measured after 15 days; assay type: functional, organism-based; settings: time 15.0 day
HepG2 [12] = assay: Inhibition of redox balance in human HepG2 cells assessed as reduction in cellular thiols incubated for 24 hrs; assay type: functional, cell-based
[13] = Toxicity in human HepG2 cells xenografted BALB/c mouse assessed as reduction in body weight at 30 mg/kg, ip administered for once every 3 days measured after 15 days; assay type: organism-based; design: scale not given: the % may be the effect or the level left; settings: in vivo, 360 h, time 15 day
[14] = Antitumor activity against human HepG2 cells xenografted BALB/c mouse assessed as reduction in tumor weight at 30 mg/kg, ip administered for once every 3 days measured after 15 days; assay type: functional; design: scale not given: the % may be the effect or the level left; settings: time 15 day
[15] = Toxicity in BALB/c mouse xenografted with human HepG2 cells assessed as death at 45 mg/kg, ip administered for once every 3 days measured after 15 days; assay type: organism-based; settings: in vivo, 360 h, time 15 day
[16] = GSH reactivity assessed as oxidation of GSH to GSSG at 10 uM measured after 60 mins by HPLC analysis; assay type: ADME; settings: 1 h
[17] = Prodrug activation assessed as changes in fluorescence intensity in presence of GSH at 100 uM incubated for 12 hrs further incubated with selenol probe Probe 1
[18] = Prodrug activation assessed as fluorescence intensity in presence of 5 mM GSH at 100 uM incubated for 12 hrs further incubated with selenol probe Probe 1 followed by addition of 1 mM GSH measured after 4 mins; settings: 5000 µM
[19] = Prodrug activation assessed as production of selenol intermediate concentration in the presence of GSH incubated with Probe 1
[20] = Prodrug activation assessed as increase in fluorescence intensity in presence of Cys at 10 uM incubated for 15 mins by HPLC analysis; settings: 0.25 h
[21] = Drug uptake in human HepG2 cells increase in fluorescence level at 10 uM by fluorescence microscopy; assay type: ADME, cell-based; settings: hepg2, 10 µM, TDE = time-dependent effect
HepG2 [22] = assay: Cytotoxicity against human HepG2 cells assessed as reduction in cell viability in presence of H2O2 incubated for 48 hrs by MTT assay; assay type: functional, cell-based

SMILES | IC50 (HeLa) | IC50 (HepG2 [1]) | IC50 (A549) | IC50 (SMMC-7721) | Drug metabolism [3] | other results
CC[C@@]1(OC(=O)NC2CCCC2)C(=O)OCc2c1cc1n(c2=O)Cc2cc3ccccc3nc2-1 | > 10 µM | > 10 µM | > 10 µM | > 10 µM | – | –
CC[C@@]1(OC(=O)OC2(CO)C[Se][Se]C2)C(=O)OCc2c1cc1n(c2=O)Cc2cc3ccccc3nc2-1 | 9.17 µM | 6.02 µM | > 10 µM | > 10 µM | Metabolite_Notdetected | Drug metabolism [2]: Metabolite_Detected
CC[C@@]1(OC(=O)OCCCCCCO)C(=O)OCc2c1cc1n(c2=O)Cc2cc3ccccc3nc2-1 | > 10 µM | > 10 µM | > 10 µM | > 10 µM | – | –
CC[C@@]1(OC(=O)NC2C[Se][Se]C2)C(=O)OCc2c1cc1n(c2=O)Cc2cc3ccccc3nc2-1 | > 10 µM | > 10 µM | > 10 µM | > 10 µM | Metabolite_Notdetected | Drug metabolism [2]: Metabolite_Notdetected
CC[C@@]1(OC(=O)OC2CCCC2)C(=O)OCc2c1cc1n(c2=O)Cc2cc3ccccc3nc2-1 | > 10 µM | > 10 µM | > 10 µM | > 10 µM | – | –
CC[C@@]1(OC(=O)OCCSSCCO)C(=O)OCc2c1cc1n(c2=O)Cc2cc3ccccc3nc2-1 | 9.62 µM | 4.86 µM | > 10 µM | > 10 µM | – | Drug metabolism [4]: Metabolite_Notdetected
CC[C@@]1(OC(=O)OCC[Se][Se]CCO)C(=O)OCc2c1cc1n(c2=O)Cc2cc3ccccc3nc2-1 | 2.56 µM | 2.54 µM | 3.3 µM | 6.4 µM | Metabolite_Notdetected | Drug metabolism [5]: Not Active; fold change (FC) [6]: 10; Activity [4]: 90%; Drug metabolism [7]: Tde; Activity (HepG2 [8]): Active; inhibition (HepG2 [9]): Active; Activity (HepG2 [10]): Active; Activity (HepG2 [11]): Active; inhibition (HepG2 [12]): Active; Activity [13]: < 10%; Activity [14]: 75%; Activity [15]: Toxic; Drug metabolism [16]: Metabolite_Detected; Activity [17]: Not Active; Drug metabolism [18]: Metabolite_Detected; Drug metabolism [19]: 104.4 µM; Drug metabolism [20]: Metabolite_Detected
CC[C@@]1(O)C(=O)OCc2c1cc1n(c2=O)Cc2cc3ccccc3nc2-1 [CAMPTOTHECIN] | 8.28 µM | 3.5 µM | – | > 10 µM | – | Activity (HepG2 [11]): Active; Activity [13]: < 10%; Activity [14]: 53%; Activity [15]: Toxic; Drug uptake [21]: Tde; Activity (HepG2 [22]): Active
